In patent US20050197350A1, “Novel quinoline, tetrahydroquinazoline, and pyrimidine derivatives and methods of treatment related to the use thereof” (TAISHO PHARMACEUTICAL CO., LTD., priority 2003, published 2005):

System: MCH receptors
Experiment: MCH receptor activity class (method not given)
Conditions: MCH receptor activity class 1-3 (percent of control at 10^-7 M or IC50)

| Structure (SMILES) | class |
| --- | --- |
| Cc1cccc([N+](=O)[O-])c1NC(=O)NC[C@H]1CC[C@@H](Nc2nccc(N(C)C)n2)CC1 [compound 2447, N-[(cis-4-{[4-(dimethylamino)pyrimidin-2-yl]amino}cyclohexyl)methyl]-N′-(2-methyl-6-nitrophenyl)urea] | 2 (Class 2: The value of percent of control at 10^−7 M was from 40% to 60% or the value of IC′50 was from 50 nM to 200 nM.) |
| CN(C)c1ccnc(N[C@H]2CC[C@@H](CNC(=O)Nc3ccc(F)c(F)c3)CC2)n1 [compound 2448] | 1 (Class 1: The value of percent of control at 10^−7 M was less than 40% or the value of IC50 was less than 50 nM.) |
| CN(C)c1ccnc(N[C@H]2CC[C@@H](CNC(=O)Nc3cc(F)cc(F)c3)CC2)n1 [compound 2449] | 1 (Class 1: The value of percent of control at 10^−7 M was less than 40% or the value of IC50 was less than 50 nM.) |
| CN(C)c1ccnc(N[C@H]2CC[C@@H](CNC(=O)Nc3ccc(F)c(Cl)c3)CC2)n1 [compound 2450, N-(3-chloro-4-fluorophenyl)-N′-[(cis-4-{[4-(dimethylamino)pyrimidin-2-yl]amino}cyclohexyl)methyl]urea] | 1 (Class 1: The value of percent of control at 10^−7 M was less than 40% or the value of IC50 was less than 50 nM.) |
| CN(C)c1nc(N[C@H]2CC[C@@H](CNC(=O)Nc3ccccc3Cl)CC2)nc2c1CCCC2 [compound 2451] | 3 (Class 3 The value of percent of control at 10^−7 M was more than 60% or the value of IC50 was more than 200 nM.) |
| Cc1cccc(C)c1NC(=O)NC[C@H]1CC[C@@H](Nc2nc3c(c(N(C)C)n2)CCCC3)CC1 [compound 2452] | 1 (Class 1: The value of percent of control at 10^−7 M was less than 40% or the value of IC50 was less than 50 nM.) |
| CN(C)c1nc(N[C@H]2CC[C@@H](CNC(=O)Nc3ccc(F)cc3F)CC2)nc2c1CCCC2 [compound 2453] | 2 (Class 2: The value of percent of control at 10^−7 M was from 40% to 60% or the value of IC′50 was from 50 nM to 200 nM.) |
| CCc1cccc(C)c1NC(=O)NC[C@H]1CC[C@@H](Nc2nc3c(c(N(C)C)n2)CCCC3)CC1 [compound 2454] | 1 (Class 1: The value of percent of control at 10^−7 M was less than 40% or the value of IC50 was less than 50 nM.) |
| CN(C)c1nc(N[C@H]2CC[C@@H](CNC(=O)Nc3ccc(F)cc3)CC2)nc2c1CCCC2 [compound 2456] | 2 (Class 2: The value of percent of control at 10^−7 M was from 40% to 60% or the value of IC′50 was from 50 nM to 200 nM.) |
| CSc1ccc(NC(=O)NC[C@H]2CC[C@@H](Nc3nc4c(c(N(C)C)n3)CCCC4)CC2)cc1 [compound 2457] | 3 (Class 3 The value of percent of control at 10^−7 M was more than 60% or the value of IC50 was more than 200 nM.) |
| CN(C)c1nc(N[C@H]2CC[C@@H](CNC(=O)Nc3ccccc3C(F)(F)F)CC2)nc2c1CCCC2 [compound 2458] | 3 (Class 3 The value of percent of control at 10^−7 M was more than 60% or the value of IC50 was more than 200 nM.) |
| Cc1cc(C)c(NC(=O)NC[C@H]2CC[C@@H](Nc3nc4c(c(N(C)C)n3)CCCC4)CC2)c(C)c1 [compound 2459] | 1 (Class 1: The value of percent of control at 10^−7 M was less than 40% or the value of IC50 was less than 50 nM.) |
| Cc1ccccc1NC(=O)NC[C@H]1CC[C@@H](Nc2nc3c(c(N(C)C)n2)CCCC3)CC1 [compound 2460] | 3 (Class 3 The value of percent of control at 10^−7 M was more than 60% or the value of IC50 was more than 200 nM.) |
| CN(C)c1nc(N[C@H]2CC[C@@H](CNC(=O)Nc3c(Cl)cc(Cl)cc3Cl)CC2)nc2c1CCCC2 [compound 2461] | 1 (Class 1: The value of percent of control at 10^−7 M was less than 40% or the value of IC50 was less than 50 nM.) |
| CN(C)c1nc(N[C@H]2CC[C@@H](CNC(=O)Nc3c(Br)cc(Br)cc3Br)CC2)nc2c1CCCC2 [compound 2462] | 1 (Class 1: The value of percent of control at 10^−7 M was less than 40% or the value of IC50 was less than 50 nM.) |
| CN(C)c1nc(N[C@H]2CC[C@@H](CNC(=O)Nc3c(F)cc(Br)cc3Br)CC2)nc2c1CCCC2 [compound 2463] | 3 (Class 3 The value of percent of control at 10^−7 M was more than 60% or the value of IC50 was more than 200 nM.) |
| CCc1cccc(CC)c1NC(=O)NC[C@H]1CC[C@@H](Nc2nc3c(c(N(C)C)n2)CCCC3)CC1 [compound 2464] | 1 (Class 1: The value of percent of control at 10^−7 M was less than 40% or the value of IC50 was less than 50 nM.) |

| Structure (SMILES) | class |
| --- | --- |
| CN(C)c1nc(N[C@H]2CC[C@@H](CNC(=O)Nc3c(Cl)cccc3C(F)(F)F)CC2)nc2c1CCCC2 [compound 2465] | 1 (Class 1: The value of percent of control at 10^−7 M was less than 40% or the value of IC50 was less than 50 nM.) |
| Cc1cccc(Cl)c1NC(=O)NC[C@H]1CC[C@@H](Nc2nc3c(c(N(C)C)n2)CCCC3)CC1 [compound 2466, N-(2-chloro-6-methylphenyl)-N′-[(cis-4-{[4-(dimethylamino)-5,6,7,8-tetrahydroquinazolin-2-yl]amino}cyclohexyl)methyl]urea] | 1 (Class 1: The value of percent of control at 10^−7 M was less than 40% or the value of IC50 was less than 50 nM.) |
| CN(C)c1nc(N[C@H]2CC[C@@H](CNC(=O)NCc3ccccc3Cl)CC2)nc2c1CCCC2 [compound 2467] | 3 (Class 3 The value of percent of control at 10^−7 M was more than 60% or the value of IC50 was more than 200 nM.) |
| CCc1cccc(C(C)C)c1NC(=O)NC[C@H]1CC[C@@H](Nc2nc3c(c(N(C)C)n2)CCCC3)CC1 [compound 2468] | 1 (Class 1: The value of percent of control at 10^−7 M was less than 40% or the value of IC50 was less than 50 nM.) |
| CCc1ccccc1NC(=O)NC[C@H]1CC[C@@H](Nc2nc3c(c(N(C)C)n2)CCCC3)CC1 [compound 2469] | 3 (Class 3 The value of percent of control at 10^−7 M was more than 60% or the value of IC50 was more than 200 nM.) |
| CN(C)c1nc(N[C@H]2CC[C@@H](CNC(=O)Nc3ccccc3I)CC2)nc2c1CCCC2 [compound 2470] | 3 (Class 3 The value of percent of control at 10^−7 M was more than 60% or the value of IC50 was more than 200 nM.) |
| Cc1cccc(C(C)C)c1NC(=O)NC[C@H]1CC[C@@H](Nc2nc3c(c(N(C)C)n2)CCCC3)CC1 [compound 2471] | 2 (Class 2: The value of percent of control at 10^−7 M was from 40% to 60% or the value of IC′50 was from 50 nM to 200 nM.) |
| CC(C)c1ccccc1NC(=O)NC[C@H]1CC[C@@H](Nc2nc3c(c(N(C)C)n2)CCCC3)CC1 [compound 2472] | 3 (Class 3 The value of percent of control at 10^−7 M was more than 60% or the value of IC50 was more than 200 nM.) |
| Cc1c(NC(=O)NC[C@H]2CC[C@@H](Nc3nc4c(c(N(C)C)n3)CCCC4)CC2)cccc1[N+](=O)[O-] [compound 2473] | 3 (Class 3 The value of percent of control at 10^−7 M was more than 60% or the value of IC50 was more than 200 nM.) |
| CCCc1ccccc1NC(=O)NC[C@H]1CC[C@@H](Nc2nc3c(c(N(C)C)n2)CCCC3)CC1 [compound 2474] | 3 (Class 3 The value of percent of control at 10^−7 M was more than 60% or the value of IC50 was more than 200 nM.) |
| Cc1cccc(C(C)(C)C)c1NC(=O)NC[C@H]1CC[C@@H](Nc2nc3c(c(N(C)C)n2)CCCC3)CC1 [compound 2475, N-(2-tert-butyl-6-methylphenyl)-N′-[(cis-4-{[4-(dimethylamino)-5,6,7,8-tetrahydroquinazolin-2-yl]amino}cyclohexyl)methyl]urea] | 1 (Class 1: The value of percent of control at 10^−7 M was less than 40% or the value of IC50 was less than 50 nM.) |
| CN(C)c1nc(N[C@H]2CC[C@@H](CNC(=O)Nc3ccccc3C(C)(C)C)CC2)nc2c1CCCC2 [compound 2476] | 2 (Class 2: The value of percent of control at 10^−7 M was from 40% to 60% or the value of IC′50 was from 50 nM to 200 nM.) |
| Cc1c(Cl)cccc1NC(=O)NC[C@H]1CC[C@@H](Nc2nc3c(c(N(C)C)n2)CCCC3)CC1 [compound 2477] | 2 (Class 2: The value of percent of control at 10^−7 M was from 40% to 60% or the value of IC′50 was from 50 nM to 200 nM.) |
| CN(C)c1nc(N[C@H]2CC[C@@H](CNC(=O)Nc3c(F)cc(Br)cc3F)CC2)nc2c1CCCC2 [compound 2478] | 3 (Class 3 The value of percent of control at 10^−7 M was more than 60% or the value of IC50 was more than 200 nM.) |
| CN(C)c1nc(N[C@H]2CC[C@@H](CNC(=O)Nc3ccc(Cl)cc3C(F)(F)F)CC2)nc2c1CCCC2 [compound 2479] | 3 (Class 3 The value of percent of control at 10^−7 M was more than 60% or the value of IC50 was more than 200 nM.) |
| CN(C)c1nc(N[C@H]2CC[C@@H](CNC(=O)Nc3ccc(C#N)cc3)CC2)nc2c1CCCC2 [compound 2480] | 3 (Class 3 The value of percent of control at 10^−7 M was more than 60% or the value of IC50 was more than 200 nM.) |
| CN(C)c1nc(N[C@H]2CC[C@@H](CNC(=O)NC(c3ccccc3)c3ccccc3)CC2)nc2c1CCCC2 [compound 2481] | 3 (Class 3 The value of percent of control at 10^−7 M was more than 60% or the value of IC50 was more than 200 nM.) |

Same assay, conditions: class by percent of control at 10^-7 M or IC50

| Structure (SMILES) | class |
| --- | --- |
| Cc1cc(Br)cc(C)c1NC(=O)NC[C@H]1CC[C@@H](Nc2nc3c(c(N(C)C)n2)CCCC3)CC1 [compound 2482, N-(4-bromo-2,6-dimethylphenyl)-N′-[(cis-4-{[4-(dimethylamino)-5,6,7,8-tetrahydroquinazolin-2-yl]amino}cyclohexyl)methyl]urea] | 1 (Class 1: The value of percent of control at 10^−7 M was less than 40% or the value of IC50 was less than 50 nM.) |
| Cc1noc(-c2ccccc2)c1NC(=O)NC[C@H]1CC[C@@H](Nc2nc3c(c(N(C)C)n2)CCCC3)CC1 [compound 2483] | 3 (Class 3 The value of percent of control at 10^−7 M was more than 60% or the value of IC50 was more than 200 nM.) |
| Cc1cc(NC(=O)NC[C@H]2CC[C@@H](Nc3nc4c(c(N(C)C)n3)CCCC4)CC2)c(C(F)(F)F)o1 [compound 2484] | 3 (Class 3 The value of percent of control at 10^−7 M was more than 60% or the value of IC50 was more than 200 nM.) |
| CN(C)c1nc(N[C@H]2CC[C@@H](CNC(=O)Nc3cc(Cl)cc(Cl)c3)CC2)nc2c1CCCC2 [compound 2485] | 3 (Class 3 The value of percent of control at 10^−7 M was more than 60% or the value of IC50 was more than 200 nM.) |
